Measurements taken from patent EP1038880B1, “Androstanes and pregnanes for allosteric modulation of GABA receptor” (priority 1994, dated 1995).

Target: GR complex
Assay: [35S]TBPS binding assay (inhibition of [35S]TBPS binding, cerebral cortex P2 homogenate)
Design: species or system rat
Details: for IC50: 2 nM [35S]TBPS, rat cerebral cortex P2 homogenate; for IMAX: maximum inhibition of [35S]TBPS binding
Description: We performed several experiments to determine the nature of the modulation of [^35S]TBPS as affected by the compounds of the invention.
These procedures were performed as follows:
Brains from male Sprague-Dawley rats were removed immediately following sacrifice and the cerebral cortices dissected over ice. […] Briefly, the cortices were gently homogenized in 0.32 M sucrose followed by centrifugation at 1000 x g for 10 minutes. The supernatant was collected and centrifuged at 9000 x g for 20 minutes. The resultant P2 pellet was suspended as a 10% (original wet weight/volume) suspension in 50 mM Na/K phosphate buffer (pH 7.4) 200 mM NaCl to form the homogenate.
One hundred microliter […] aliquots of the P2 homogenate (0.5 milligrams (mg) protein) were incubated with 2 nanomolar (nM) [^35S]TBPS (70-110 curies/millimole; New England Nuclear, Boston, MA) in the presence or absence of the naturally occurring steroids or their synthetic derivatives to be tested. The tested compounds were dissolved in dimethylsulfoxide (Baker Chem. Co., Phillipsbury, NJ) and added to the incubation mixture in 5 µL aliquots. The incubation mixture was brought to a final volume of 1 mL with buffer. Non-specific binding was defined as binding in the presence of […] TBPS. The effect and specificity of GABA (Sigma Chem. Co., St. Louis, MO) was evaluated by performing all assays in the presence of GABA plus (+)bicuculline (Sigma Chem. Co.). maintained at 25°C for 90 minutes (steady state conditions) were terminated by rapid filtration through glass fiber filters (No. 32, Schleicher and Schuell, Keene, NH). Filter-bound radioactivity was quantitated by liquid scintillation spectrophotometry.
Various compounds were screened to determine their potential as modulators of [^35S]TBPS binding in vitro. These assays were performed in accordance with the above discussed procedures. […] It is an indication of a compound's in vitro potency. Maximum inhibition is an indication of a compound's in vitro efficacy.

[1] = listed as 3α-Hydroxy-3β-(3'-hydroxyphenyl)-ethynyl-5β-pregnan-20-one

Compound `CC12CCC(O)CC1CCC1C2CCC2(C)C(C(=O)Cn3cnc4ccccc43)CCC12` (stereo not drawn) [3α-hydroxy-21-(1'-benzimidazolyl)5β-pregnan-20-one] has an IC50 of 53 nM and an IMAX of 100%.
Compound `CC(=O)C1CCC2C3CCC4CC(O)(C#Cc5ccc(O)cc5)CCC4(C)C3CCC12C` (stereo not drawn) [3β-(4'-Hydroxyphenylethynyl)-3α-hydroxy-5β-pregnan-20-one] has an IC50 of 1550 nM and an IMAX of 88%.
For `CC12CCC(O)(C#CCO)CC1CCC1C2CCC2(C)C(C(=O)Cn3nccn3)CCC12` (stereo not drawn) [3α-Hydroxy-3β-(3-hydroxypropyn-1-yl)-21-(1,2,3-triazol-2-yl)-5β-pregnan-20-one], the IC50 was 430 nM and the IMAX was 107%.
In the case of `CCOC(=O)c1ccc(C#CC2(O)CCC3C(CCC4C3CCC3(C)C(C(C)=O)CCC43)C2)cc1` (stereo not drawn) [3β-(4'-Carboxyphenylethynyl)-3α-hydroxy-19-nor-5β-pregnan-20-one ethyl ester], the IC50 is reported as 15 nM and the IMAX is reported as 94%.
Work on `CC(=O)c1ccc(C#CC2(O)CCC3C(CCC4C3CCC3(C)C(C(C)=O)CCC43)C2)cc1` (stereo not drawn) [3β-(4'-Acetylphenyl)ethynyl-3α-hydroxy-19-nor-20-one] yielded an IC50 of 14 nM and an IMAX of 103%.
Work on `CC(=O)[C@H]1CC[C@H]2[C@@H]3CC[C@@H]4C[C@@](O)(Cc5ccccc5)CC[C@]4(C)[C@H]3CC[C@]12C` [3β-Benzyl-3α-hydroxy-5β-pregnan-20-one, 3α-hydroxy-3β-benzyl-5β-pregnan-20-one] yielded an IC50 of 109 nM and an IMAX of 102%.
In the case of `CC(=O)C1CCC2C3CCC4CC(O)(C#CCn5nccn5)CCC4(C)C3CCC12C` (stereo not drawn) [3α-Hydroxy-3β-[3-(2'H-1,2,3-triazol-2'-yl)-1-propynyl]-5β-pregnan-20-one], the IC50 is reported as 66 nM and the IMAX is reported as 98%.
`CC(=O)C1CCC2C3CCC4CC(O)(C#CCCO)CCC4(C)C3CCC12C` (stereo not drawn) [3β-(4'-hydroxybutynyl)-3α-hydroxy-5α-pregnan-20-one] gave an IMAX of 95%.
Work on `CC(=O)[C@H]1CC[C@H]2[C@@H]3CC[C@@H]4C[C@@](O)(C#CCc5ccccc5)CC[C@]4(C)[C@H]3CC[C@]12C` [3α-Hydroxy-3β-(3'-phenyl-1'-propynyl)-5β-pregnan-20-one] yielded an IC50 of 103 nM and an IMAX of 95%.
`COCC#C[C@@]1(O)CC[C@@]2(C)[C@H](CC[C@@H]3[C@@H]2CC[C@]2(C)[C@@H](C(C)=O)CC[C@@H]32)C1` [3α-Hydroxy-3β-(3-methoxy-1-propynyl)-5β-pregnan-20-one] was tested, and the IMAX was 105%.
Work on `C[C@]12CC[C@H]3[C@@H](CC[C@@H]4C[C@@](O)(C#CCCO)CC[C@@H]43)[C@@H]1CC[C@@H]2C(=O)Cn1ccnc1` [3α-Hydroxy-3β-(4-hydroxybutyn-1-yl)-21-(1-imidazolyl)-5β-19-norpregnan-20-one] yielded an IC50 of 98 nM and an IMAX of 98%.
Work on `COc1ccc(C#CC2(O)CCC3(C)C(CCC4C3CCC3(C)C(C(C)=O)CCC43)C2)cc1OC` (stereo not drawn) [3β-(3',4'-Dimethoxyphenylethynyl)-3α-hydroxy-5β-pregnan-20-one] yielded an IMAX of 106%.
Work on `CC(=O)C#C[C@@]1(O)CC[C@@]2(C)[C@@H](CC[C@@H]3[C@@H]2CC[C@]2(C)[C@@H](C(C)=O)CC[C@@H]32)C1` [3α-Hydroxy-3β-[3'-oxobutynyl]-5α-pregnan-20-one] yielded an IC50 of 6510 nM and an IMAX of 104%.
In the case of `CC(=O)[C@H]1CC[C@H]2[C@@H]3CC[C@@H]4C[C@@](O)(C#Cc5cccc(O)c5)CC[C@]4(C)[C@H]3CC[C@]12C` [3β-(3'-hydroxyphenylethynyl)-3α-hydroxy-5β-pregnan-20-one], the IC50 is reported as 407 nM, the IC50 [1] is reported as 619 nM and the IMAX is reported as 99%. The IMAX [1] was 98%.
In the case of `CC(=O)Oc1ccc(C#C[C@@]2(O)CC[C@@]3(C)[C@H](CC[C@@H]4[C@@H]3CC[C@]3(C)[C@@H](C(C)=O)CC[C@@H]43)C2)cc1` [3β-(4'-Acetoxyphenylethynyl)-3α-hydroxy-5β-pregnan-20-one], the IC50 is reported as 1430 nM and the IMAX is reported as 100%.
For `CC(=O)[C@H]1CC[C@H]2[C@@H]3CC[C@@H]4C[C@@](O)(C#Cc5cccnc5)CC[C@]4(C)[C@H]3CC[C@]12C` [3α-Hydroxy-3β-(3-pyridyl)ethynyl-5β-pregnan-20-one], the IC50 was 138 nM and the IMAX was 100%.
`CC(=O)[C@H]1CC[C@H]2[C@@H]3CC[C@@H]4C[C@@](O)(c5ccccc5)CC[C@]4(C)[C@H]3CC[C@]12C` [3α-Hydroxy-3β-phenyl-5β-pregnan-20-one, 3α-hydroxy-3β-phenyl-5β-pregnan-20-one] was tested, and the IC50 was 382 nM and the IMAX was 86%.
With `C[C@]12CC[C@@H](O)C[C@@H]1CC[C@@H]1[C@@H]2CC[C@]2(C)[C@@H](C(=O)Cn3ccnc3)CC[C@@H]12` [3α-hydroxy-21-(1'-imidazolyl)-5α-pregnan-20-one] the IC50 was 71 nM and the IMAX was 99%.
With `COc1ccc(CC[C@@]2(O)CC[C@@]3(C)[C@H](CC[C@@H]4[C@@H]3CC[C@]3(C)[C@@H](C(C)=O)CC[C@@H]43)C2)cc1OC` [3β-(3',4'-Dimethoxyphenylethyl)-3α-hydroxy-5β-pregnan-20-one] the IC50 was 507 nM and the IMAX was 66%.
`CC(=O)[C@H]1CC[C@H]2[C@@H]3CC[C@@H]4C[C@@](O)(C#CCCO)CC[C@]4(C)[C@H]3C(=O)C[C@]12C` [3β-(4'-Hydroxy-1'-butynyl)-3α-hydroxy-5β-pregnan-11,20-dione] showed an IC50 of 268 nM and an IMAX of 102%.
Work on `CC(=O)[C@H]1CC[C@H]2[C@@H]3CC[C@@H]4C[C@@](O)(C#CCN(C)C)CC[C@]4(C)[C@H]3CC[C@]12C` [3β-[3'-(N,N-dimethylamino)-1'-propynyl]-3α-hydroxy-5β-pregnan-20-one] yielded an IC50 of 1420 nM and an IMAX of 100%.
With `CC(=O)c1ccc(C#CC2(O)CCC3C(CCC4C3CCC3(C)C(C(C)=O)CCC43)C2)cc1` (stereo not drawn) [3β-(4'-Acetylphenyl)ethynyl-3α-hydroxy-5β-19-norpregnan-20-o] [3β-(4'-Acetylphenylethynyl)-3α-hydroxy-19-nor-5β-pregnan-20-one] the IC50 was 6 nM and the IMAX was 90%.
`C[C@@]1(O)CC[C@@]2(C)[C@@H](CC[C@@H]3[C@@H]2CC[C@]2(C)[C@@H](C(=O)Cn4cnc5ccccc54)CC[C@@H]32)C1` [21-(1' benzimidazolyl)-3α-hydroxy-3β-methyl-5α-pregnan-20-one] gave an IC50 of 109 nM and an IMAX of 95%.
`C[C@]12CC[C@@H](O)C[C@H]1CC[C@@H]1[C@@H]2CC[C@]2(C)[C@@H](C(=O)Cn3ccnc3)CC[C@@H]12` [3α-Hydroxy-21-(1'-imidazolyl)-5β-pregnan-20-one] was tested, and the IC50 was 73 nM and the IMAX was 57%.
Work on `C[C@]12CC[C@H]3[C@@H](CC[C@@H]4C[C@@](O)(C#CCCO)CC[C@@H]43)[C@@H]1CC[C@@H]2C(=O)Cn1ccnn1` [3α-hydroxy-3β-(4-hydroxybutyn-1-yl)-21-(1H-1,2,3-triazol-1-yl)-5β-19-norpregnan-20-one] yielded an IC50 of 124 nM and an IMAX of 95%.
`CC(=O)OCCCCC#C[C@@]1(O)CC[C@@]2(C)[C@H](CC[C@@H]3[C@@H]2CC[C@]2(C)[C@@H](C(C)=O)CC[C@@H]32)C1` [3β-(6'Acetoxy-1'-hexynyl)-3α-hydroxy-5β-pregnan-20-one] was tested, and the IC50 was 306 nM and the IMAX was 99%.
`CC(=O)[C@H]1CC[C@H]2[C@@H]3CC[C@@H]4C[C@@](O)(C#CCCC#N)CC[C@]4(C)[C@H]3CC[C@]12C` [3β-(4-cyano-1-butynyl)-3α-hydroxy-5β-pregnan-20-one] was tested, and the IC50 was 131 nM and the IMAX was 86%.
With `CC(=O)[C@H]1CC[C@H]2[C@@H]3CC[C@@H]4C[C@@](O)(C#Cc5ccc(Cl)cc5)CC[C@]4(C)[C@H]3CC[C@]12C` [3β-(4'-chlorophenylethynyl)-3α-hydroxy-5β-pregnan-20-one] the IC50 was 58 nM and the IMAX was 89%.
`C[C@@]1(O)CC[C@@]2(C)[C@@H](CC[C@@H]3[C@@H]2CC[C@]2(C)[C@@H](C(=O)Cn4ccnn4)CC[C@@H]32)C1` [3α-hydroxy-3β-methyl-21-(1',2',3'-triazol-1'-yl)-5α-pregnan-20-one] was tested, and the IC50 was 136 nM and the IMAX was 99%.
`COc1ccc(C#CC2(O)CCC3(C)C(CCC4C3CCC3(C)C(C(C)=O)CCC43)C2)cc1` (stereo not drawn) [3β-(4'-methoxyphenylethynyl)-3α-hydroxy-5β-pregnan-20-one] was tested, and the IC50 was 47 nM and the IMAX was 89%.
With `CC(=O)[C@H]1CC[C@H]2[C@@H]3CC[C@@H]4C[C@@](O)(C#CCn5ccnc5)CC[C@]4(C)[C@H]3CC[C@]12C` [3α-Hydroxy-3β-[3'-(N-imidazolyl)-1'-propynyl)-5β-pregnan-20-one] the IC50 was 2720 nM and the IMAX was 107%.
`CC(=O)OCCC#CC1(O)CCC2(C)C(CCC3C2CCC2(C)C(C(C)=O)CCC32)C1` (stereo not drawn) [3β-(4'-Acetoxy-1'-butynyl)-3α-hydroxy-5β-pregnan-20-one] was tested, and the IC50 was 20 nM and the IMAX was 96%.
`C[C@]12CC[C@@H](O)C[C@@H]1CC[C@@H]1[C@@H]2CC[C@]2(C)[C@@H](C(=O)CSS(=O)(=O)[O-])CC[C@@H]12.[Na+]` [Sodium S-(3α-hydroxy-5α-pregnan-20-on-21-yl) thiosulfate] showed an IC50 of 133 nM and an IMAX of 90%.
